This is an account of results in patent US20110088107A1, “COMPOSITIONS AND METHODS FOR DERIVING OR CULTURING PLURIPOTENT CELLS” (priority 2009, published 2011).

For one test, the system named is C1.2 hiPSCs. Kind of test: Screen for factors stabilizing C1 hiPSCs upon DOX withdrawal. Type of test: cell-based, human. The settings on record: C1.2 hiPSCs without DOX. As to the method:
FIGS. 9(A)-9(D) show the in vitro stabilization of naïve human pluripotent stem cells. […] C1 cells were plated on feeders in N2B27 media with the indicated factors. p-values using student's t-test indicates significant change in comparison to cells grown in DOX/PD/CH/LIF conditions, which were defined as a control (100% survival). (B) Scheme for reverting hESCs to generate “naive-hESCs”. (C) Representative images of WIBR3 hESCs at different stages of the reversion process in PD/CH/LIF/FK (P indicates passage number). (D) Representative images of naive-WIBR3.5 hESC line, derived by plating WIBR3 hESCs in PD/CH/FK/LIF medium without transfection of exogenous factors. Magnifications of captured images are indicated. Naïve human pluripotent cells were grown in serum-free N2B27 based media. […] Throughout the manuscript, indicated passage numbers of naïve-hiPSC/hESCs indicates number of passages counted after induction of the naïve state. […]

In another test the test system is NOD-iPS cells. Kind of test: Dox-independent propagation of Dox-dependent NOD-iPS cells in supplemented mESM. It counts as cell-based, mouse (NOD). The settings on record: mESM lacking Dox. The source says: FIGS. 4(A)-4(H) illustrate generation of genetically unmodified germline competent NOD ES cells. (A) Experimental outline for derivation of iPS lines that grow in the presence of small molecules and in the absence of Dox. Representative images of NOD iPS lines growing in mESM supplemented with the indicated small molecules or growth factors. (B) Single-cell cloning efficiency of NOD iPS cells in different growth conditions. WT or NOD-iPS cells grown in mESM and KP were sorted in 96 well plates and cultured in mESM supplemented with small molecules. The number of wells containing Nanog+ colonies was counted after 6 days. Efficiencies were normalized to that of C57B6/129F1-iPS cells (“permissive” controls) plated in mESM and defined as 100%. SD for average efficiencies from 2 experiments are shown. Student test P value compares KP/CH to PD/CH mESM conditions for NOD iPS cells. (C) Expansion of day E3.5 ICM derived NOD ES cells in the presence of KP, KP/CH or PD/CH and derivation of stable ES lines. Images of initial colonies observed at passage 2 after embryo dissociation are shown together with representative images at later passages. (D) Karyotype of NOD ES lines. (E) Immunostaining of NOD ES lines for pluripotency markers. Inhibitors used during cell line derivation and propagation are indicated. (F) Chimerism in adult mice generated from the indicated cell lines is evident by the presence of agouti (brown) and albino coat color originating from the NOD background. […] (G) Real-Time PCR analysis for endogenous expressed Oct4, c-Myc and Klf4 genes in NOD iPS and ES cells grown in the indicated conditions. Relative expression levels are normalized to levels detected in control 129 ES cells. (H) Southern analysis indicating correct targeting of the endogenous Nanog locus in NOD ES cells with Nanog-GFP knock-in targeting construct.
Small molecules have been identified to replace some of the reprogramming factors in iPS derivation (Huangfu et al., 2008; Shi et al., 2008). […]

The test system of a further test is mEpiSCs. Kind of test: Signaling dependence of pluripotent cell lines, mEpiSCs. It counts as cell-based, mouse. Particulars: normal growth medium, inhibitor or factor added. The method, then:
(§1) Pluripotent cells were equally divided and plated on feeders in the indicated growth medium in which these cell lines are normally maintained, and 36 hours later the wells were supplemented with the indicated inhibitors or growth factors. After seven days, wells were fixed and stained to determine the relative percentage of colonies positive for pluripotency markers. SSEA1 staining was used for mouse stem cells. Colony formation was normalized to an internal control “Growth medium” without inhibitors (first left column). Normalized percentages lower than 5% are defined as “sensitivity” to the presence of the supplemented inhibitor. (B-C) Western blot analysis of total ERK1/2, phosphorylated ERK1/2 (pERK1/2) and phosphorylated Stat3 (pStat3). WIBR3 hESC and C1 hiPSC were grown in traditional bFGF/Activin containing media while naive-hESC/hiPSCs were grown in N2B27 PD/CH/FOR/LIF. ‘2×LIF’ indicates two fold increase in LIF concentration. (D) LIF/Stat3 is required for stabilization of naive-hESC/hiPSCs. Naïve NOD mESCs, WIBR3.5 and WIBR3.1 naive-hESC, and C1 naïve-hiPSCs were electroporated with a pBRY-CAGGS-flox-DsRedT4-IP control plasmid, a plasmid encoding a dominant negative Stat3 Y705F mutant (Stat3-DN), or a plasmid Stat3-C constitutively active mutant (pBRY-Stat3-CA). Cells were passaged three times in the presence of puromycin. After 20 days, colonies positive for pluripotency markers were counted and normalized to colonies from cells electroporated with empty vector (n=3 replicates for each condition). (E) RT-PCR expression of early germ cell markers in the presence or absence of BMP4/7/8 cytokines for 7 days. (F) Representative FISH analysis for XIST RNA (red) and Cot1 nuclear RNA (green). Pri-WIBR3.2 cell line was analyzed after passaging in conventional bFGF/serum-containing human ESC growth conditions. Numbers indicate average percentage of XIST positive nuclei counted.
(§2) Small molecules and cytokines were purchased from Tocris, Calbiochem or Sigma, and were supplemented as indicated at the following final concentration: JAK inhibitor (JAKi, 6 μM), Kenpaullone (KP, 5 μM), PD0325901 (PD, 1 μM); CHIR99021 (CH, […]), Forskolin (FK, 10 μM), FGF4-Receptor inhibitors PD173074 (0.1 μM) and SU5401 (2 μM); TGFβ/ALK inhibitors A83-01 (1 μM), RepSox (1 μM), ALK inhibitor (ALKi—SB431542, 2 μM); AICAR (0.5 mM); BixO1294 (1 μM); BayK8644 (1 μM); recombinant human BMP4 (10 ng/ml), recombinant human IL-6 (10 ng/ml), recombinant human TGFβ (500 ng/ml), Media with inhibitors was routinely replaced every 48 hours to sustain activity of compounds.

The subject of the next test is naive-hESCs/hiPSCs. In words: Signaling dependence of pluripotent cell lines, naive-hESC/hiPSC. It counts as cell-based, human. Particulars: grown in PD/CH/FK/LIF, inhibitor or factor added. The method, then:
as §1, §2

The test system of another test is hESCs. In words: Signaling dependence of pluripotent cell lines, conventional hESCs. Type of test: cell-based, human. The settings on record: normal growth medium, inhibitor or factor added. The method, then: Pluripotent cells were equally divided and plated on feeders in the indicated growth medium in which these cell lines are normally maintained, and 36 hours later the wells were supplemented with the indicated inhibitors or growth factors. After seven days, wells were fixed and stained to determine the relative percentage of colonies positive for pluripotency markers. SSEA1 staining was used for mouse stem cells. Colony formation was normalized to an internal control “Growth medium” without inhibitors (first left column). […] (B-C) Western blot analysis of total ERK1/2, phosphorylated ERK1/2 (pERK1/2) and phosphorylated Stat3 (pStat3). WIBR3 hESC and C1 hiPSC were grown in traditional bFGF/Activin containing media while naive-hESC/hiPSCs were grown in N2B27 PD/CH/FOR/LIF. ‘2×LIF’ indicates two fold increase in LIF concentration. […] Cells were passaged three times in the presence of puromycin. […] (E) RT-PCR expression of early germ cell markers in the presence or absence of BMP4/7/8 cytokines for 7 days. (F) Representative FISH analysis for XIST RNA (red) and Cot1 nuclear RNA (green). Pri-WIBR3.2 cell line was analyzed after passaging in conventional bFGF/serum-containing human ESC growth conditions.

Another test has as its system mESCs. Kind of test: Signaling dependence of pluripotent cell lines, mESCs. The settings on record: normal growth medium, inhibitor or factor added. It counts as cell-based, mouse. The method, then:
Pluripotent cells were equally divided and plated on feeders in the indicated growth medium in which these cell lines are normally maintained, and 36 hours later the wells were supplemented with the indicated inhibitors or growth factors. After seven days, wells were fixed and stained to determine the relative percentage of colonies positive for pluripotency markers. SSEA1 staining was used for mouse stem cells. Colony formation was normalized to an internal control “Growth medium” without inhibitors (first left column). Normalized percentages lower than 5% are defined as “sensitivity” to the presence of the supplemented inhibitor. (B-C) Western blot analysis of total ERK1/2, phosphorylated ERK1/2 (pERK1/2) and phosphorylated Stat3 (pStat3). WIBR3 hESC and C1 hiPSC were grown in traditional bFGF/Activin containing media while naive-hESC/hiPSCs were grown in N2B27 PD/CH/FOR/LIF. ‘2×LIF’ indicates two fold increase in LIF concentration. (D) LIF/Stat3 is required for stabilization of naive-hESC/hiPSCs. Naïve NOD mESCs, WIBR3.5 and WIBR3.1 naive-hESC, and C1 naïve-hiPSCs were electroporated with a pBRY-CAGGS-flox-DsRedT4-IP control plasmid, a plasmid encoding a dominant negative Stat3 Y705F mutant (Stat3-DN), or a plasmid Stat3-C constitutively active mutant (pBRY-Stat3-CA). Cells were passaged three times in the presence of puromycin. After 20 days, colonies positive for pluripotency markers were counted and normalized to colonies from cells electroporated with empty vector (n=3 replicates for each condition). (E) RT-PCR expression of early germ cell markers in the presence or absence of BMP4/7/8 cytokines for 7 days. (F) Representative FISH analysis for XIST RNA (red) and Cot1 nuclear RNA (green). Pri-WIBR3.2 cell line was analyzed after passaging in conventional bFGF/serum-containing human ESC growth conditions. Numbers indicate average percentage of XIST positive nuclei counted. […]

For `Cc1c[nH]c(-c2cnc(NCCNc3ccc(C#N)cn3)nc2-c2ccc(Cl)cc2Cl)n1` [CHIR99021], the “role in the 13i+LIF cocktail on removing one inhibitor at a time” value with C1.2 hiPSCs is reported as “crucial components”. Besides, in the test with NOD-iPS cells, the “Dox-independent growth of pluripotent NOD-iPS cells” value is listed as “supported Dox-independent growth”.

Take Wnt3a: in the test with NOD-iPS cells, the “Dox-independent growth of pluripotent NOD-iPS cells” value was “supported Dox-independent growth”.

Regarding `CCN(CC)CCCCNc1ncc2cc(-c3cc(OC)cc(OC)c3)c(NC(=O)NC(C)(C)C)nc2n1` [PD173074], in the test with mEpiSCs, the “effect on pluripotency of mEpiSCs” value is “resulted in the differentiation”. Besides, in the test on naive-hESCs/hiPSCs, the “effect on pluripotency of naive-hESCs/hiPSCs” value (shortened to “effect … of naive-hESCs/hiPSCs”) is reported as “but not of naive-hESCs/hiPSCs or mESCs”. In addition, the “effect on pluripotency of conventional hESCs” value (“effect … of conventional hESCs” below) with hESCs is recorded as “resulted in the differentiation”.

In the case of `O=C(NOC[C@H](O)CO)c1ccc(F)c(F)c1Nc1ccc(I)cc1F` [PD], the “effect … of conventional hESCs” value with hESCs is recorded as “could not be propagated”. Further, the “role in the 13i+LIF cocktail on removing one inhibitor at a time” value in the test on C1.2 hiPSCs is listed as “crucial components”.

On to `Cc1cccc(-c2nn(C(=S)Nc3ccccc3)cc2-c2ccnc3ccccc23)n1` [A83-01], for which the “effect on pluripotency of mEpiSCs” value in the test on mEpiSCs is “rapidly differentiated”. Further, the “effect on pluripotency of mESCs” value in the test on mESCs is reported as “maintained their pluripotent state”. For the same molecule, the “effect … of naive-hESCs/hiPSCs” value in the test on naive-hESCs/hiPSCs is reported as “maintained their pluripotent state”. The “effect … of conventional hESCs” value with hESCs is “rapidly differentiated”.

For TGFβ, the “effect on pluripotency of mESCs” value in the test on mESCs is given as “differentiated”. Besides, the “effect … of naive-hESCs/hiPSCs” value with naive-hESCs/hiPSCs was “differentiated”.
